Test results published in publication PMC3160846 (PLoS ONE, 2011).
Where two headings read alike, the source gives them in different places.

Columns and labels:
[1] = biological target: T1, Aurora-A (Homo sapiens, UniProt O14965); assay: In vitro kinase inhibition assay, Aurora-A; assay type: biochemical; settings: recombinant GST-tagged Aurora-A, 37°C, 90 min
T1 construct: GST-tagged Aurora-A (residues S123-S401) containing kinase domain; GST; made in house; host or cells: Sf9 insect cells
Description: Aurora-A and Aurora-B kinase - The recombinant GST-tagged Aurora-A (residues S123-S401) containing kinase domain was expressed in Sf9 insect cells. The recombinant full length His-tagged Aurora-B (residues M1∼A344) was purchased from Invitrogen (PV3970). The kinase assay were carried out in 96-well plates with the tested compound at either 37°C (Aurora-A) for 90 min or 30°C (Aurora-B) for 120 min.
(§1) Composition of the reaction buffers used in different kinase inhibitory assays is described in Figure S3.
50 mM Tris-HCl pH 7.4, 10 mM NaCl, 10 mM MgCl2, 0.01% BSA, 5 mM ATP, 1 mM DTT and […] tetra(LRRASLG) peptide, and either 150 ng recombinant Aurora-A or 40 ng recombinant Aurora-B.

[2] = biological target: T2, CHK2 (Homo sapiens, UniProt O96017); assay: Kinase inhibition assay, CHK2; assay type: biochemical
T2 construct: CHK2 (residues M1-L543) containing kinase domain; His; made in house; host or cells: Sf9 insect cells
Description: CHK1/2 – The recombinant His-tagged CHK1 (residues M1-T476) or CHK2 (residues M1-L543) containing kinase domain were expressed in Sf9 insect cells. The kinase assay was carried out in 96-well plates with the tested compound at 30°C for 120 min.
as §1
25 mM HEPES pH 7.4, 10mM MgCl2, 4mM MnCl2, 0.5mM Na3VO4, 2 mM DTT, 0.02% Triton X100, 0.01% BSA, 1 mM ATP, 2 mM CHK peptide ([…]), 50~500 ng recombinant CHK1 or CHK2.

[3] = biological target: T3, cMET (Homo sapiens, UniProt P08581); assay: Kinase inhibition assay, cMET; assay type: biochemical
T3 construct: GST-tagged c-Met (residues K956-S1390) containing kinase domain; GST; made in house; host or cells: Sf9 insect cells
Description: c-Met – The recombinant GST-tagged c-Met (residues K956-S1390) containing kinase domain was expressed in Sf9 insect cells. The kinase assay was carried out in 96-well plates with the tested compound at 30°C for 120 min.
as §1
25 mM HEPES pH 7.4, 10mM MgCl2, 4 mM MnCl2, 0.5mM Na3VO4, 2 mM DTT, 0.02% Triton X100, 0.01% BSA, 1 mM ATP, 2 mM polyGlu4:Tyr peptide, 75 ng recombinant Met.

[4] = tested on: OECM-1 cells; assay: Clonogenic assay, OECM-1; assay type: cell-based, Human; settings: Homo sapiens, OECM1; OECM-1, oral, p53 mutant, MDR1 negative; read-out: IC50, anti-proliferative activity
Description: (§2) Human lung adenocarcinoma A549 cells and NTUB1 bladder cancer cells were maintained in RPMI supplied with 10% fetal bovine serum. […] KB-derived MRP1-expressing cell line, KB-7D, was maintained in growth medium supplemented with 7 µM VP-16.
Two hundred cells in logarithmic growth phase were seeded in a 6-well plate. The cells were exposed to various concentrations of the test drugs for a three-generation period. At the end of the incubation period, cells were fixed and stained with 50% ethanol containing 0.5% methylene blue for 30 min. The plates were washed five times with water and allowed to air-dry. Colonies were countered manually. […] Each value represents the average of at least three independent experiments run in triplicates.

[5] = tested on: various human cancer cell lines; assay: Clonogenic assay, panel of cancer cell lines; assay type: cell-based; settings: for IC50: Homo sapiens
Description: as §2, with “serum. KB-derived MDR1-expressing cell lines (i.e. KB-VIN10 and KB-S15) and NTUB1-dervided MDR1-expressing cell line (i.e. NTU0.017) were maintained in growth medium supplemented with 10 nM vincristine, 15 nM and 17 nM paclitaxel respectively.” for “serum.”
Two hundred cells in logarithmic growth phase were seeded in a 6-well plate. The cells were exposed to various concentrations of the test drugs for a three-generation period. At the end of the incubation period, cells were fixed and stained with 50% ethanol containing 0.5% methylene blue for 30 min. The plates were washed five times with water and allowed to air-dry. Colonies were countered manually. The IC50 value resulting from 50% inhibition of cell growth was calculated graphically as a comparison with the growth of the control group. Each value represents the average of at least three independent experiments run in triplicates.

[6] = tested on: HONE-1 cells; assay: Caspase-3/-7 activity imaging, HONE-1; assay type: cell-based, Human; settings: HONE-1, 60 h
Description: Caspase-3/-7 activity was analyzed with the MagicRed™ DEVD real-time caspase activity detection kit (catalog number #935, Immunochemistry Technologies LLC, Bloomington, MN). Briefly, cells were cultured in chamber-slides and incubated with test agents for various durations. Cells were then incubated with the Caspase-3/-7 substrate MR-(DEVD2) in culture medium for 1 hour, and then co-incubated with Hoechst 33342 for 15 min. Cells were viewed with a UV-enabled inverted-microscope at an excitation wavelength of 540 nm–560 nm and emission at 610 nm. Experiments were repeated independently at least two times.

T1 sequence (O14965 123-401): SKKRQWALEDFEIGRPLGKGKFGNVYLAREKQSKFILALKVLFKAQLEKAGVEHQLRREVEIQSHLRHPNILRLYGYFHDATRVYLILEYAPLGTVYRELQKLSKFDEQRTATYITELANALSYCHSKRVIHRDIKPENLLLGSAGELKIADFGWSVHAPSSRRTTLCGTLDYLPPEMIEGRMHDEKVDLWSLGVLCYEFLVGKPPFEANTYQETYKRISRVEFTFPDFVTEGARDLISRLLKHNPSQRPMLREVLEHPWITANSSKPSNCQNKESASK
T3 sequence (P08581 956-1390): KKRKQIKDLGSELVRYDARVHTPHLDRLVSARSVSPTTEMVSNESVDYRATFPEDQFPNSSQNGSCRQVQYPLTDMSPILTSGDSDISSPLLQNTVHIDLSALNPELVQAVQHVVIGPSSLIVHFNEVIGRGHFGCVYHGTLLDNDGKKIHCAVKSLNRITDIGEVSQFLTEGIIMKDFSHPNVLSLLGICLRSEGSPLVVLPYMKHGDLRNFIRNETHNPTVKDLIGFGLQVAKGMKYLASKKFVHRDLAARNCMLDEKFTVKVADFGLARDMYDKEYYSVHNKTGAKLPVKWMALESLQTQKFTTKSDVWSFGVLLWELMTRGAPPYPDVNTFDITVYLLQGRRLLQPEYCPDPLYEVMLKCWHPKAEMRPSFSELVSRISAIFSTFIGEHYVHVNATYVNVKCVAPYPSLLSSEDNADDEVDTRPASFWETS
T2 sequence (O96017 whole entry, the tested form may be a part): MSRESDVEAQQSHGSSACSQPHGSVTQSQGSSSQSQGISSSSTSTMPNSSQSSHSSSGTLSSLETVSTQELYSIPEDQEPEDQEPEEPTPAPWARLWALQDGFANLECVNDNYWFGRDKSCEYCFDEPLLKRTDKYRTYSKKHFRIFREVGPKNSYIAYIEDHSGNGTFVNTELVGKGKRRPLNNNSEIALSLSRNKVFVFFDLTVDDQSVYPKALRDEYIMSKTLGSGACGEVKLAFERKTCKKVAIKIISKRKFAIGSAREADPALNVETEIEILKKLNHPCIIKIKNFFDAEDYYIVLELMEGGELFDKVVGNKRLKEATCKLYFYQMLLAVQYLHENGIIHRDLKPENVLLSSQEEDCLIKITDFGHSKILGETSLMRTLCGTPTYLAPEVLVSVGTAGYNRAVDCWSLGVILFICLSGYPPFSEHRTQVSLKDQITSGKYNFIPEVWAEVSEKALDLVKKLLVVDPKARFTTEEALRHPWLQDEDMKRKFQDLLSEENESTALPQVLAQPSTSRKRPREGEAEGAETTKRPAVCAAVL

Compound CN(C)Cc1ccccc1NC(=O)Nc1ccc(CCNc2ncnc3oc(-c4ccccc4)c(Cl)c23)cc1 [BPR1K653] has an IC50 [1] of 124 nM, an IC50 [2] of 2300 nM and an IC50 [3] of over 10000 nM. The IC50 [4] was 135 ± 10 nM, the IC50 ([5]; A549, HONE-1, OECM-1, KB, HT29, NTUB1, MV4-11, IM9, read-out: IC50 against various types of cancer cells) was under 500 nM and the IC50 ([5]; read-out: IC50 in all tested p53-wildtype/-negative/-mutant cancer cell lines) was under 20 nM. The “effect of verapamil treatment on sensitivity” value ([5]; MDR-negative and MDR1-expressing cancer cells, verapamil 10 µM, data not shown) was “could not further increase the sensitivity to BPR1K653” and the “apoptosis, caspase-3/-7 activity” value [6] was “induced apoptosis”.
